From publication PMC4506051, “Pharmacokinetic Profiles of Active Ingredients and Its Metabolites Derived from Rikkunshito, a Ghrelin Enhancer, in Healthy Japanese Volunteers: A Cross-Over, Randomized Study” (PLoS ONE, 2015)
Read-outs that look alike come from different tables or passages of the source.

Assays:
[1] = Randomized crossover quantitative trial: plasma pharmacokinetics of nine ingredients after rikkunshito 2.5, 5.0 or 7.5 g; conditions: for AUC(0-t) / Cmax / Tmax / half-life: plasma, po; for AUC(0-t): AUC0-last; for Cmax: C max; for Tmax: Median t max (range)
Method in brief: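 Plasma concentrations of ingredients were measured by LC–MS/MS or GC–MS in samples taken from pre-dose to 48 h. Dosing was a single oral rikkunshito dose (2.5, 5.0 or 7.5 g; three-arm randomized crossover) in fasted healthy Japanese volunteers aged 20–45.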

[2] = Stability of ingredients in gastric pH solution (pH 1.2, 37°C); type: physicochemical; conditions: pH 1.2
Description: Rikkunshito gradually dissolved in acidic solution (pH 1.2) at 37°C, and the concentration of atractylodin after adding 0.25, 0.5, 1, and 2 h was measured by gas chromatography–mass spectrometry.

[3] = cited from earlier work
[4] = Method validation: stability in blood
[5] = Method validation: long-term stability in plasma
[6] = Method validation: short-term stability in plasma
[7] = Method validation: freeze-thaw stability in plasma
[8] = Method validation: post-preparative stability (autosampler)
[9] = Method validation: stability in standard, stock and working solution
[10] = Dose proportionality (linearity) test by power model for C max and AUC0-last; conditions: for Dose proportionality test using power model, Inference: linear when 90% CI of β included 1, CIlower ≥0.8, and CIupper ≤1.25; for Dose proportionality test using power model, β: rikkunshito 2.5, 5.0 or 7.5 g
Description: The dose proportionality was analyzed via a power model [21, 22]. […] Evaluation of linearity of the dosage-exposure relationship was conducted with Phoenix WinNonlin and SAS 9.2 (SAS Institute, Inc., Cary, NC).

[11] = human, 2.5 g, rikkunshito 2.5 g single oral, n = 21, geometric mean (95% CI)
[12] = human, 5 g, rikkunshito 5.0 g single oral, n = 19, geometric mean (95% CI)
[13] = human, 7.5 g, rikkunshito 7.5 g single oral, n = 19, geometric mean (95% CI)

O=C1C[C@@H](c2ccc(O)cc2)Oc2cc(O)cc(O)c21 [Naringenin]
AUC(0-t) [1, 11]: 1.65 ng·h/mL | Cmax [1, 11]: 0.376 ng/mL | Tmax ([1]; human, 2.5 g, rikkunshito 2.5 g single oral, n = 21, median (minimum–maximum)): 5.83 h | AUC(0-t) [1, 12]: 3.32 ng·h/mL | Cmax [1, 12]: 0.878 ng/mL | Tmax ([1]; human, 5 g, rikkunshito 5.0 g single oral, n = 19, median (minimum–maximum)): 4 h | half-life ([1]; human, 5 g, t 1/2, rikkunshito 5.0 g single oral, n = 19, geometric mean (95% CI)): 4.46 h | AUC(0-t) [1, 13]: 4.63 ng·h/mL | Cmax [1, 13]: 1.15 ng/mL | Tmax ([1]; human, 7.5 g, rikkunshito 7.5 g single oral, n = 19, median (minimum–maximum)): > 3 h | half-life ([1]; human, 7.5 g, t 1/2, rikkunshito 7.5 g single oral, n = 19, geometric mean (95% CI)): < 10 h | t 1/2 ([1]; rikkunshito 7.5 g single oral, n = 19, geometric mean (95% CI)): 5.38 (3.31–8.76) h | Median t max (range) ([1]; rikkunshito 7.5 g single oral, n = 19, median (minimum–maximum)): 4.00 (2.00–6.00) h | Stability in gastric pH solution, Quantitative value ([2]; 0.5 h): 2030 ng/mL | Stability in gastric pH solution, Quantitative value ([2]; 1 h): 2140 ng/mL | Stability in gastric pH solution, Quantitative value ([2]; 2 h): 1990 ng/mL | Maximum plasma concentration in the preliminary pharmacokinetics study ([3]; 7.5 g dosage): 0.162 ± 0.0392 ng/mL | Stability in blood, RR ([4]; on ice 2 h, higher concentration (800 / 320 / 4000 pg/mL)): 98.1% | Stability in blood, RR ([4]; on ice 2 h, lower concentration (20 / 8 / 100 pg/mL)): 95.8% | Long-term stability, RR ([5]; naringenin 100 pg/mL, freezer −30°C to −10°C, 22 days): 101.9% | Long-term stability, RR ([5]; naringenin 100 pg/mL, freezer, 31 days): 98.1% | Long-term stability, RR ([5]; naringenin 100 pg/mL, freezer, 220 days): 86.8% | Long-term stability, RR ([5]; naringenin 4000 pg/mL, freezer, 22 days): 95.8% | Long-term stability, RR ([5]; naringenin 4000 pg/mL, freezer, 31 days): 95.8% | Long-term stability, RR ([5]; naringenin 4000 pg/mL, freezer, 220 days): 85.2% | Short-term stability, RR ([6]; naringenin 100 pg/mL, room temperature, 24 h as printed in the cell): 113.8% | Short-term stability, RR ([6]; naringenin 4000 pg/mL, room temperature, 24 h as printed in the cell): 112.2% | Short-term stability, RR ([6]; room temperature (1°C to 30°C) 4 h, higher concentration (800 / 320 / 4000 pg/mL)): 92.8% | Short-term stability, RR ([6]; room temperature (1°C to 30°C) 4 h, lower concentration (20 / 8 / 100 pg/mL)): 102.1% | Freeze-thaw stability, RR ([7]; −30°C to −10°C, 3 cycles, higher concentration (800 / 320 / 4000 pg/mL)): 96.7% | Freeze-thaw stability, RR ([7]; −30°C to −10°C, 3 cycles, lower concentration (20 / 8 / 100 pg/mL)): 90.6% | Post-preparative stability, RR ([8]; autosampler set at 4°C, 48 h, higher concentration (800 / 320 / 4000 pg/mL)): 87.1% | Post-preparative stability, RR ([8]; autosampler set at 4°C, 48 h, lower concentration (20 / 8 / 100 pg/mL)): 85.6% | Post-preparative stability, RR ([8]; naringenin 100 pg/mL, autosampler set at 4°C, 25 h as printed in the cell): 91.7% | Post-preparative stability, RR ([8]; naringenin 4000 pg/mL, autosampler set at 4°C, 25 h as printed in the cell): 96.7% | Working solution stability, RR ([9]; refrigerator 128 days, higher concentration (10 / 4 / 50 ng/mL)): 99.8% | Working solution stability, RR ([9]; refrigerator 128 days, lower concentration (0.1 / 0.04 / 0.5 ng/mL)): 102.6% | Stock solution stability, RR ([9]; refrigerator (1°C to 8°C) 54 days, 0.1 mg/mL (naringenin 0.5 mg/mL)): 54 days: 97.5% | Stock solution stability, RR ([9]; refrigerator (1°C to 8°C) 129 days, 0.1 mg/mL (naringenin 0.5 mg/mL)): 129 days: 96.7% | Dose proportionality test using power model, Inference ([10]; AUC0-last): Nonlinear | Dose proportionality test using power model, β ([10]; AUC0-last): 1.02 | Dose proportionality test using power model, Inference ([10]; Cmax): Nonlinear | Dose proportionality test using power model, β ([10]; Cmax): 1.06

COc1ccc(-c2cc(=O)c3c(OC)c(OC)c(OC)c(OC)c3o2)cc1OC [Nobiletin]
t max values ([1]; human, in vivo): 15 min-1 h | Stability in gastric pH solution, Quantitative value ([2]; 0.5 h): 18.1 ng/mL | Stability in gastric pH solution, Quantitative value ([2]; 1 h): 21.5 ng/mL | Stability in gastric pH solution, Quantitative value ([2]; 2 h): 19.6 ng/mL | Maximum plasma concentration in the preliminary pharmacokinetics study ([3]; in vivo): 0.0626 ± 0.0436 ng/mL | Stability in blood, RR ([4]; 8 pg/mL, at room temperature for 2 h): 86.3% | Stability in blood, RR ([4]; 8 pg/mL, on ice for 2 h): 91.7% | Stability in blood, RR ([4]; 320 pg/mL, at room temperature for 2 h): 99.2% | Stability in blood, RR ([4]; 320 pg/mL, on ice for 2 h): 91.3% | Long-term stability, RR ([5]; 8 pg/mL, freezer (−30°C to −10°C) for 13 days): 91.2% | Long-term stability, RR ([5]; 8 pg/mL, freezer (−30°C to −10°C) for 39 days): 88.0% | Long-term stability, RR ([5]; 8 pg/mL, freezer (−30°C to −10°C) for 228 days): 89.9% | Long-term stability, RR ([5]; 320 pg/mL, freezer (−30°C to −10°C) for 13 days): 114.0% | Long-term stability, RR ([5]; 320 pg/mL, freezer (−30°C to −10°C) for 39 days): 114.3% | Long-term stability, RR ([5]; 320 pg/mL, freezer (−30°C to −10°C) for 228 days): 103.2% | Short-term stability, RR ([6]; 8 pg/mL, at room temperature for 4 h): 106.5% | Short-term stability, RR ([6]; 8 pg/mL, at room temperature for 25 h): 114.3% | Short-term stability, RR ([6]; 320 pg/mL, at room temperature for 4 h): 109.7% | Short-term stability, RR ([6]; 320 pg/mL, at room temperature for 25 h): 92.5% | Freeze-thaw stability, RR ([7]; 8 pg/mL, deep freezer (−30°C to −10°C), after 3 cycles of freeze-thaw): 86.0% | Freeze-thaw stability, RR ([7]; 320 pg/mL, deep freezer (−30°C to −10°C), after 3 cycles of freeze-thaw): 107.9% | Post-preparative stability, RR ([8]; 8 pg/mL, autosampler set at 4°C for 24 h): 89.5% | Post-preparative stability, RR ([8]; 8 pg/mL, autosampler set at 4°C for 48 h): 87.7% | Post-preparative stability, RR ([8]; 320 pg/mL, autosampler set at 4°C for 24 h): 88.0% | Post-preparative stability, RR ([8]; 320 pg/mL, autosampler set at 4°C for 48 h): 89.7% | Working solution stability, RR ([9]; 0.04 ng/mL, refrigerator (1°C to 8°C) for 53 days): 95.0% | Working solution stability, RR ([9]; 0.04 ng/mL, refrigerator (1°C to 8°C) for 128 days): 89.0% | Working solution stability, RR ([9]; 4 ng/mL, refrigerator (1°C to 8°C) for 53 days): 102.6% | Working solution stability, RR ([9]; 4 ng/mL, refrigerator (1°C to 8°C) for 128 days): 109.6% | Stock solution stability, RR ([9]; 0.1 mg/mL, refrigerator (1°C to 8°C) for 54 days): 54 days: 99.8% | Stock solution stability, RR ([9]; 0.1 mg/mL, refrigerator (1°C to 8°C) for 129 days): 129 days: 89.1% | Dose proportionality test using power model, Inference ([10]; AUC0-last): Nonlinear | Dose proportionality test using power model, β ([10]; AUC0-last): 0.604 | Dose proportionality test using power model, Inference ([10]; Cmax): Nonlinear | Dose proportionality test using power model, β ([10]; Cmax): 0.701
